What was measured:
3D7 P. falciparum strain = assay: parasite proliferation assay in infected red blood cells (SYBR Green I); format: cell-based, Plasmodium falciparum; settings: Plasmodium falciparum, 3D7, Erythrocyte, 3D7 strain; read-out: EC50 3D7 strain
Procedure, shortened: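 P. falciparum 3D7 grown in O+ human erythrocytes to 3–8% parasitemia and exposed to compounds. Proliferation read as the increase in parasite DNA. Detection used SYBR Green I in saponin/triton-X/EDTA lysis buffer, with overnight lysis at room temperature.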

W2 strain = assay: parasite proliferation assay in infected red blood cells (SYBR Green I), W2 strain; format: cell-based; settings: Erythrocyte
Description: Compounds of the invention can be assayed to measure their capacity to inhibit proliferation of parasitemia in infected red blood cells. The proliferation is quantified by the addition of SYBR Green I (INVITROGEN)® dye which has a high affinity for double stranded DNA.

## Cc1ccc(Nc2c(-c3ccc(F)cc3)nc3n2CCN(C(=O)[C@@H](NC(=O)CCOCCOCCOCCOCCNC(=O)CCCCC2SCC4NC(=O)NC42)c2ccccc2)C3)cc1 (stereo partly shown) [Compound 298]
3D7 P. falciparum strain
  EC50: 610 nM
W2 strain
  EC50: 193 nM

## CC(C)(N)C(=O)N1CCn2c(nc(-c3ccc(F)cc3)c2-c2ccc(F)cc2)C1 [Compound 31]
3D7 P. falciparum strain
  EC50: 13100 nM
W2 strain
  EC50: 6890 nM

## N[C@@H](CC1CCC1)C(=O)N1CCn2c(nc(-c3ccc(F)cc3)c2Nc2ccc(Cl)c(F)c2)C1 [Compound 325]
3D7 P. falciparum strain
  EC50: 30 nM
W2 strain
  EC50: 29 nM

## Cc1ccc(Nc2c(-c3ccc(F)cc3)nc3n2CCN(Cc2ccc(S(C)(=O)=O)cc2)C3)cc1 [Compound 179]
3D7 P. falciparum strain
  EC50: 4790 nM
W2 strain
  EC50: 1070 nM

## N[C@@H](Cc1ccccc1)C(=O)N1CCn2c(nc(-c3ccc(F)cc3)c2Nc2ccc(F)cc2)C1 [Compound 19]
3D7 P. falciparum strain
  EC50: 70 nM
W2 strain
  EC50: 59 nM

## Cc1ccc(Nc2c(-c3ccc(F)cc3)nc3n2CCN(Cc2ccc(OCCCN(C)C)cc2)C3)cc1 [Compound 183]
3D7 P. falciparum strain
  EC50: 1900 nM
W2 strain
  EC50: 1340 nM

## CC(=O)Nc1ccc(C[C@H](N)C(=O)N2CCn3c(nc(-c4ccc(F)cc4)c3Nc3ccc(C)cc3)C2)cc1 [Compound 160]
3D7 P. falciparum strain
  EC50: 4320 nM
W2 strain
  EC50: 2390 nM

## Cc1ccc(Nc2c(-c3ccc(F)cc3)nc3n2CCN(C(=O)CN2CCCC(F)(F)C2)C3)cc1 [Compound 74]
3D7 P. falciparum strain
  EC50: 70 nM
W2 strain
  EC50: 67 nM

## CC1(C)c2nc(-c3ccc(F)cc3)c(-c3ccc(F)cc3)n2CCN1C(=O)CN [Compound 705]
3D7 P. falciparum strain
  EC50: 1240 nM
W2 strain; Plasmodium falciparum
  EC50: 760 nM

## Cc1ccc(Nc2c(-c3ccc(F)cc3)nc3n2CCN(C(=O)C(O)c2cccc(O)c2)C3)cc1 (stereo not shown) [Compound 129]
3D7 P. falciparum strain
  EC50: 10 nM
W2 strain
  EC50: 6 nM

## Cc1cc(Nc2c(-c3ccc(F)cc3)nc3n2CCN(C(=O)CN)C3(C)C)ccc1Cl [Compound 659]
3D7 P. falciparum strain
  EC50: 4390 nM
W2 strain; Plasmodium falciparum
  EC50: 5280 nM

## CC(C)(C)CC(C)(C)Nc1c(C(c2ccccc2)c2ccccc2)nc2ccccn12 [Compound 739]
3D7 P. falciparum strain
  EC50: 768 nM
W2 strain; Plasmodium falciparum
  EC50: 881 nM

## Cc1ccc(Nc2c(-c3ccc(F)cc3)nc3n2CC(=O)N(CCN(C)C)C3(C)C)cc1F [Compound 681]
3D7 P. falciparum strain
  EC50: 272 nM
W2 strain; Plasmodium falciparum
  EC50: 196 nM

## CCCNC(=O)C[C@H](N)C(=O)N1CCn2c(nc(-c3cccc(F)c3)c2Nc2ccc(Cl)c(F)c2)C1 [Compound 255]
3D7 P. falciparum strain
  EC50: 610 nM
W2 strain
  EC50: 653 nM

## CC(C)(C)C1CCC(Nc2c(-c3ccc(F)cc3)nc3n2CCN(C(=O)CN)C3(C)C)CC1 (stereo not shown) [Compound 663]
3D7 P. falciparum strain
  EC50: 1060 nM
W2 strain; Plasmodium falciparum
  EC50: 1660 nM

## Cc1ccc(Nc2c(-c3ccc(F)cc3)nc3n2CCN(C(=O)[C@@H](N)CCCCN)C3)cc1 [Compound 156]
3D7 P. falciparum strain
  EC50: 1830 nM
W2 strain
  EC50: 458 nM

## CC1(C)c2nc(-c3ccc(F)cc3)c(Nc3ccc(OC(F)(F)F)cc3)n2CCN1C(=O)CN [Compound 649]
3D7 P. falciparum strain
  EC50: 24 nM
W2 strain; Plasmodium falciparum
  EC50: 18 nM

## CC(C)(N)C(=O)N1CCn2c(nc(-c3ccc(F)cc3)c2Nc2cccnc2)C1 [Compound 16]
3D7 P. falciparum strain
  EC50: 14100 nM
W2 strain
  EC50: 3320 nM

## CCN(CC)CCN1CCn2c(nc(-c3ccc(F)cc3)c2Nc2ccc(C)cc2)C1 [Compound 88]
3D7 P. falciparum strain
  EC50: 150 nM
W2 strain
  EC50: 81 nM

## CC(C)(C)[C@H](N)C(=O)N1CCn2c(nc(-c3ccc(F)cc3)c2Nc2ccc(Cl)c(F)c2)C1 [Compound 326]
3D7 P. falciparum strain
  EC50: 30 nM
W2 strain
  EC50: 22 nM

## Cc1ccc(Nc2c(-c3ccc(F)cc3)nc3n2CCN(C(=O)CN(CCO)CCO)C3)cc1 [Compound 161]
3D7 P. falciparum strain
  EC50: 540 nM
W2 strain
  EC50: 510 nM

## CC1(C)c2nc(-c3ccc(F)cc3)c(Nc3ccc(F)c(C(F)(F)F)c3)n2CCN1C(=O)CN [Compound 657]
3D7 P. falciparum strain
  EC50: 618 nM
W2 strain; Plasmodium falciparum
  EC50: 1090 nM

## CC(C)(C)CC(C)(C)Nc1c(-c2ccccc2Br)nc2ccccn12 [Compound 743]
3D7 P. falciparum strain
  EC50: 2680 nM
W2 strain; Plasmodium falciparum
  EC50: 3000 nM

## CCCNCC(=O)N1CCn2c(nc(-c3ccc(F)cc3)c2Nc2ccc(C)cc2)C1 [Compound 307]
3D7 P. falciparum strain
  EC50: 30 nM
W2 strain
  EC50: 22 nM

## CC1(C)c2nc(-c3ccc(F)cc3)c(Nc3ccc(C(F)(F)F)c(Cl)c3)n2CCN1C(=O)CN [Compound 658]
3D7 P. falciparum strain
  EC50: 5 nM
W2 strain; Plasmodium falciparum
  EC50: 6 nM

## Cc1ccc(Nc2c(-c3ccc(F)c(F)c3)nc3n2CCN(C(=O)CN)C3)cc1 [Compound 385]
3D7 P. falciparum strain
  EC50: 20 nM
W2 strain
  EC50: 20 nM

## Cc1ccc(Nc2c(-c3ccc(F)cc3)nc3ccc(C)cn23)cc1 [Compound 748]
3D7 P. falciparum strain
  EC50: 3440 nM
W2 strain; Plasmodium falciparum
  EC50: 4150 nM

## O=C(CN1CCCC1)N1CCn2c(nc(-c3ccc(F)cc3)c2Nc2ccc(F)cc2)C1 [Compound 33]
3D7 P. falciparum strain
  EC50: 740 nM
W2 strain
  EC50: 1620 nM

## CN1CCN(Cc2c(-c3ccc(F)cc3)nc3n2CCN(C(=O)CN)C3(C)C)CC1 [Compound 698]
3D7 P. falciparum strain
  EC50: 8810 nM
W2 strain; Plasmodium falciparum
  EC50: 9020 nM

## CC1(C)c2nc(-c3ccc(F)cc3)c(Nc3cccc(OC(F)(F)F)c3)n2CCN1C(=O)CN [Compound 650]
3D7 P. falciparum strain
  EC50: 12 nM
W2 strain; Plasmodium falciparum
  EC50: 9 nM

## N[C@@H](Cc1cscn1)C(=O)N1CCn2c(nc(-c3ccc(F)cc3)c2Nc2ccc(Cl)c(F)c2)C1 [Compound 315]
3D7 P. falciparum strain
  EC50: 20 nM
W2 strain
  EC50: 8 nM

## CC1(C)c2nc(-c3ccc(F)cc3)cn2CCN1C(=O)C(N)CCc1cccc(F)c1 (stereo not shown) [Compound 701]
3D7 P. falciparum strain
  EC50: 8270 nM
W2 strain; Plasmodium falciparum
  EC50: 7350 nM

## NCC(=O)N1CCn2c(nc(-c3ccccc3)c2NC2CCCC2)C1 [Compound 7]
3D7 P. falciparum strain
  EC50: 15800 nM
W2 strain
  EC50: 7780 nM

## Cc1ccc(Nc2c(-c3cccc(Cl)c3)nc3n2CCNC3)cc1 [Compound 279]
3D7 P. falciparum strain
  EC50: 3520 nM
W2 strain
  EC50: 3830 nM

## CCC(=O)OC(C(=O)N1CCn2c(nc(-c3ccc(F)cc3)c2Nc2ccc(C)cc2)C1)c1ccccc1 (stereo not shown) [Compound 268]
3D7 P. falciparum strain
  EC50: 10 nM
W2 strain
  EC50: 12 nM

## CN1CCn2c(nc(-c3ccc(F)cc3)c2Nc2ccc(Cl)cc2)C1(C)C [Compound 607]
3D7 P. falciparum strain
  EC50: 30 nM
W2 strain; Plasmodium falciparum
  EC50: 48 nM

## COCCNCC(=O)N1CCn2c(nc(-c3ccc(F)cc3)c2Nc2ccc(C)cc2)C1 [Compound 309]
3D7 P. falciparum strain
  EC50: 80 nM
W2 strain
  EC50: 68 nM

## Cc1ccc(Nc2c(-c3ccc(F)cc3)nc3n2CCN(C(=O)CNCc2ccccc2)C3)cc1 [Compound 146]
3D7 P. falciparum strain
  EC50: 20 nM
W2 strain
  EC50: 14 nM

## Cc1ccc(Nc2c(-c3ccc(F)c(F)c3)nc3n2CCN(C(=O)C(C)(C)N)C3)cc1 [Compound 379]
3D7 P. falciparum strain
  EC50: 60 nM
W2 strain
  EC50: 50 nM

## CC1(C)c2nc(-c3ccc(F)cc3)c(NC3CCCC3)n2CCN1C(=O)CN [Compound 670]
3D7 P. falciparum strain
  EC50: 402 nM
W2 strain; Plasmodium falciparum
  EC50: 711 nM

## CC1(C)c2nc(-c3ccc(F)cc3)c(Nc3ccc(-c4ccccc4)cc3)n2CCN1C(=O)CN [Compound 647]
3D7 P. falciparum strain
  EC50: 279 nM
W2 strain; Plasmodium falciparum
  EC50: 250 nM

## Cc1ccc(Nc2c(-c3cccc(F)c3)nc3n2CC(=O)NC3(C)C)cc1Cl [Compound 604]
3D7 P. falciparum strain
  EC50: 40 nM
W2 strain; Plasmodium falciparum
  EC50: 49 nM

## CC(C)(C)CC(C)(C)Nc1c(-c2ccccc2-c2ccco2)nc2ccccn12 [Compound 747]
3D7 P. falciparum strain
  EC50: 2230 nM
W2 strain; Plasmodium falciparum
  EC50: 4480 nM

## Cc1ccc(Nc2c(-c3ccc(F)cc3)nc3n2CCN(C(=O)Cc2ccncn2)C3)cc1 [Compound 206]
3D7 P. falciparum strain
  EC50: 1200 nM
W2 strain
  EC50: 1170 nM

## CC(C)(N)C(=O)N1CCn2c(nc(-c3ccc(F)cc3)c2Nc2cc(F)cc(F)c2)C1 [Compound 66]
3D7 P. falciparum strain
  EC50: 220 nM
W2 strain
  EC50: 244 nM

## Cc1cc(C)cc([S+]([O-])c2c(-c3ccc(F)cc3)nc3n2CCN(C(=O)CN)C3(C)C)c1 (stereo not shown) [Compound 722]
3D7 P. falciparum strain
  EC50: 381 nM
W2 strain; Plasmodium falciparum
  EC50: 281 nM

## CCCN(CCC)[C@@H](C)C(=O)N1CCn2c(nc(-c3ccc(F)cc3)c2Nc2ccc(C)cc2)C1 [Compound 148]
3D7 P. falciparum strain
  EC50: 4060 nM
W2 strain
  EC50: 1430 nM
